Measurements: paper PMC8589628, “Characterization and Antimicrobial Studies of Iturin-Like and Bogorol-Like Lipopeptides From Brevibacillus spp. Strains GI9 and SKDU10” (Frontiers in Microbiology, 2021)
Like-named read-outs stand apart in the source and are kept apart here. Peptide text beside a SMILES is read from it. * marks the point of attachment. X1 = CC(C)CCCCCCCCCCCCC(=O)*

Tests used:
[1] = target: Proteinase K (Parengyodontium album, UniProt P06873); experiment: Effect of hydrolytic enzymes on activity (well-diffusion assay); assay type: in vitro ADME; details: for Tolerance to proteinase K treatment: 37°C, 6 h; for Residual activity: Proteinase K, 6h/ 37 °C, 50 mM phosphate buffer (pH 7.0), enzyme 0.1, 1.0 and 5.0 mg/ml used, well-diffusion assay
Chain of Proteinase K (P06873 106-384): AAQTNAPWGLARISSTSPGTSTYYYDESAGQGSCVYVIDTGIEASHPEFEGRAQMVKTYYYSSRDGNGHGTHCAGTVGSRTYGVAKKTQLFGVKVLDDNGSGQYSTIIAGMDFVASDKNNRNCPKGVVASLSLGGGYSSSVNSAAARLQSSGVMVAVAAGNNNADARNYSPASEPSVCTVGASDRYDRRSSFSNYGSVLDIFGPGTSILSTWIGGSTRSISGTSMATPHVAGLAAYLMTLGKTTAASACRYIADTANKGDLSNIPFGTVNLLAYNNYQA
Method: (§1) Sensitivities of purified antimicrobial compounds to temperature, pH, and hydrolytic enzymes were confirmed by performing well-diffusion assay. pH stability was determined by adjusting the pH of aliquots of purified antimicrobial compounds from 2.0 to 12.0 (using 10 mM HCl or NaOH) and incubating at room temperature for 4 h. The residual activity was measured after neutralizing the sample to pH 7.0. To determine temperature susceptibility, antimicrobial compounds were incubated at different temperatures ranging from 37 to 100°C for 1 h and 121°C for 15 min, and then residual antimicrobial activity was determined after cooling the samples to room temperature. Similarly, proteolytic enzymes such as trypsin and proteinase K were used at three different concentrations (0.1, 1.0, and 5.0 mg/ml) to ensure their effect on the activity of antimicrobial compounds. The enzyme solutions were prepared in 50 mM phosphate buffer (pH 7.0). All reactions were performed at 37°C for 6 h followed by deactivation of the enzyme by heating the solution in boiling water for 5 min before performing the activity assay.

[2] = system: Trypsin; experiment: as above; assay type: in vitro ADME; details: for Tolerance to trypsin treatment: 37°C, 6 h; for Residual activity: Trypsin, 6h/ 37 °C, 50 mM phosphate buffer (pH 7.0), enzyme 0.1, 1.0 and 5.0 mg/ml used, well-diffusion assay
Method: as §1

[3] = system: Chymotrypsin; experiment: as above; assay type: in vitro ADME; details: 6h/ 37 °C
Method: as §1

[4] = system: B. subtilis MTCC 121; assay type: cell-based, Bacillus subtilis
Method: (§2) The antimicrobial activity of HPLC purified compounds was determined against various test strains including S. aureus MTCC 1430, Vibrio cholera MTCC 3904, Bacillus subtilis MTCC 121, Listeria monocytogenes MTCC 839, C. albicans MTCC 183, C. albicans MTCC 1637, C. albicans MTCC 227, C. tropicalis MTCC 184, C. glabrata MTCC 3019, and C. inconspicua MTCC 1074. Antimicrobial activity was also tested against clinical Candida strains and phytopathogenic fungi viz. Fusarium moniliforme MTCC 158, Alternaria brassicicola MTCC 2102 and Colletotrichum acutatum MTCC 1037. Bacterial and Candida test strains were grown in NB and yeast malt broth (YMB), respectively. Fungal test strains were grown in potato dextrose broth (PDB). Minimum inhibitory concentrations (MICs) of purified compounds were evaluated against test organisms by using a microtiter plate dilution assay. Mid-log-phase test strains (5 × 10^5 CFU/ml) were incubated in a 96-well plate with different concentrations of the lipopeptides for 24–48 h at 37°C (final volume of 200 μl). OD was measured at 600 nm after 24 and 48 h for bacteria and yeast, respectively, using an ELISA microplate reader (Thermo Scientific, United States). MIC against phytopathogenic fungi was determined using the 96-well microtiter plate method ([Sharma et al., 2020]).

[5] = system: V. cholerae MTCC 3904; assay type: cell-based, Vibrio cholera
Method: as §2

[6] = system: Lipase; experiment: Effect of hydrolytic enzymes on activity (well-diffusion assay); assay type: in vitro ADME; details: 6h/ 37 °C
[7] = system: A. brassicicola MTCC 2102; experiment: Protection of tomato slices and grapes from fungal spores; parameters: species or system Alternaria brassicicola; details: 500 μl of 2 mg/ml lipopeptide, then 50 μl spore suspension (10^7 conidia per ml); 25°C, 4 days; three replicates
Method: The surface of the tomatoes and grapes was sterilized with 5% NaOCl for 5 min and rinsed three times with plenty of sterile water. After sterilization, tomatoes were cut into slices and wounds of 3 mm were inflicted with a sterile scalpel on the surface of the grapes. Tomato slices and grapes were divided into four groups. Contents of group 1 were treated with water only (negative control). Contents of group 2 were treated with 50 μl of a spore suspension (spores 10^7 conidia per ml) of A. brassicicola MTCC 2102 (positive control without treatment). Contents of group 3 were first treated with 500 μl of 2 mg/ml solution of purified lipopeptides separately and after adsorption of lipopeptides, fungal spores were added. Contents of the fourth group were treated with purified lipopeptides only without addition of fungal spores. Tomato slices and grapes from all four groups were incubated at 25°C under controlled humidity conditions for 4 days and observed. Each treatment was performed with three biological and technical replicates.

[8] = system: Spores of A. brassicicola MTCC 2102; experiment: Phase-contrast microscopy of treated spores; assay type: cell-based, Alternaria brassicicola; details: A. brassicicola MTCC 2102 spores, 2X MIC, 2 h
Method: Effect of antimicrobial compounds on cell membrane of test organisms was determined by transmission electron microscopy (TEM). Test strains, S. aureus MTCC 1430, V. cholerae MTCC 3904, and C. albicans MTCC 183 were cultured to mid-log phase, washed, and re-suspended in 1X PBS (OD 600 nm 0.2). The cell suspensions were incubated (37°C) with 1X MIC of purified antimicrobial compounds for 30 min. Cells after treatment were centrifuged, washed twice with PBS. For TEM, cells of S. aureus MTCC 1430 and V. cholerae MTCC 3904 were subjected to negative stain with 0.1% (w/v) sodium phosphotungstate (PTA, Sigma, United States) in water for 1 min, on a carbon-coated copper grid with 300 mesh (Polyscience, United States) and observed under transmission electron microscope (JEOL JEM 2100, United States) ([Raje et al., 2006]). For SEM, C. albicans MTCC 183 cells were immobilized on poly L-lysine glazed glass slides and incubated at 4°C for 2 h. Cells were fixed using Karnovsky’s fixative and serially dehydrated with gradient of ethanol, freeze dried, and platinum coated. ZEISS EV040 (United States) scanning electron microscope was employed to photograph the cells ([Raje et al., 2006]). Spores of A. brassicicola MTCC 2102 were treated with 2X MIC of lipopeptides for 2 h and observed under phase-contrast microscope (Nickon H600L, Japan). […]

[9] = Collapse drop assay (CDA); assay type: physicochemical; details: 5 μl of 10 μg/ml stock on mineral oil droplet, observed after 1 min
Method: Collapse Drop Assay (CDA) was performed as mentioned earlier ([Sharma et al., 2020]). To a well of 96 well microtiter plate, 2 μl mineral oil was added and equilibrated at 37°C for 24 h. Purified lipopeptide (5 μl of 10 μg/ml stock) was applied to the top of oil droplet and its shape was observed after 1 min with a magnifying glass for collapse and spread due to reduction in surface tension. Water and triton X-100 served as controls ([Youssef et al., 2004]). To determine critical micelle concentration (CMC), different concentrations of purified lipopeptides were prepared and surface tension was measured on a tensiometer (KRUSS K10T, Germany) at room temperature. The values for CMC were estimated by plotting surface tension as a function of concentration of lipopeptides. A point of intersection was located between the pre and post CMC data plot. The mean value of triplicate experiments was used to increase the accuracy. Concentrations ranging from 0.1 to 1000 μg/ml were used to determine surface tension on a tensiometer.

Molecule | Tolerance to proteinase K treatment [1] | Residual activity [1] | Tolerance to trypsin treatment [2] | Residual activity [2] | Residual activity [3] | MIC value ([4]; MTCC 121, 24 h) | MIC value ([5]; MTCC 3904, 24 h) | Residual activity [6] | Fungal growth on the surface of treated tomato and grape slices inoculated with spores [7] | Effect on spores (phase-contrast microscopy) [8] | Collapse drop assay reaction [9] | MIC value ([4]; B. subtilis MTCC 121, NB, 5 × 10^5 CFU/ml, 37°C, OD 600 nm after 24 h, 10–550 μg/ml in 5 μg/ml increments) | MIC value ([5]; V. cholerae MTCC 3904, NB, 5 × 10^5 CFU/ml, 37°C, OD 600 nm after 24 h, 10–550 μg/ml in 5 μg/ml increments)
CC(C)CCCCCCCCCCCCC(=O)N[C@H](C(=O)NCC(=O)N[C@@H](C)C(=O)N[C@@H](CO)C(=O)N[C@@H](Cc1c[nH]cn1)C(=O)N[C@@H](CCC(N)=O)C(=O)N[C@@H](CCC(N)=O)C(=O)O)[C@@H](C)O [ILL] (X1-TGASHQQ-OH; N-terminus assumed) | resistant | 82.3% | resistant | 94.1% | 91.1% | 260 to 270 µg/mL | 105 to 115 µg/mL | 100% | no fungal growth | structural irregularity | positive reaction |  | 
Dhb-Tyr-Orn-Ile-Val-Val-Lys-Val-Leu-Asp-Val-Glu [BLL, bogorol like lipopeptide purified from Brevibacillus sp. strain SKDU10; 12 amino acids and C17 hydroxy fatty acid side chain] | resistant | 77.7% | resistant | 91.6% | 94.4% |  |  | 100% | no fungal growth | structural irregularity | positive reaction | 225 to 235 µg/mL | 140 to 150 µg/mL
